Test results published in ChEMBL document CHEMBL3885861, “Open TG-GATES”.

Species on record: Rattus norvegicus
Test: Open TG-GATES - Regimen: Daily Repeat
Assay type: toxicity, organism-based, Sprague-Dawley
Design: regimen Daily Repeat, gender Male, age 6 weeks
Details: in vivo, po, route gavage; for APTT / Bas / Eos / Fbg / Hb / Ht / Lym / MCH / MCHC / MCV / Mono / Neu / PT / Plat / RBC / Ret / WBC: tissue Blood; for KIDNEY_L / KIDNEY_R / KIDNEY_TOTAL: tissue Kidney; for LIVER: tissue Liver; for A/G / ALP / ALT / AST / BUN / CRE / Ca / Cl / DBIL / GLC / IP / K / LDH / Na / PL / RALB / TBIL / TC / TG / TP / gamma-GTP: tissue Plasma
[1] = 30 mg/kg, 72 h, dose level Middle, time 3 day
[2] = 30 mg/kg, […], dose level Middle, time 7 day
[3] = 30 mg/kg, […], dose level Middle, time 14 day
[4] = 30 mg/kg, […], dose level Middle, time 28 day
[5] = 100 mg/kg, 72 h, dose level High, time 3 day
[6] = 100 mg/kg, […], dose level High, time 7 day
[7] = 100 mg/kg, […], dose level High, time 14 day
[8] = 100 mg/kg, […], dose level High, time 28 day

## NC(=O)N/N=C/c1ccc([N+](=O)[O-])o1 [NITROFURAZONE]
[1]
  TERMINAL_BW: 221 g
  APTT: 15.2 s
  Bas: 0%
  Eos: 0.8%
  Fbg: 285 mg/dL
  Hb: 12.7 g/dL
  Ht: 38.3%
  Lym: 78.8%
  MCH: 21.6 pg
  MCHC: 33.2%
  MCV: 65 fL
  Mono: 3.2%
  Neu: 16.6%
  PT: 14.2 s
  Plat: 119.4 x10_4/uL
  RBC: 589.8 x10_4/ul
  Ret: 8.5%
  WBC: 86.5 x10_2/uL
  KIDNEY_L: 1 g
  KIDNEY_R: 0.9 g
  KIDNEY_TOTAL: 1.9 g
  LIVER: 11.3 g
  A/G: 0.9
  ALP: 1653.2 IU/L
  ALT: 46.2 IU/L
  AST: 70 IU/L
  BUN: 15.4 mg/dL
  CRE: 0.2 mg/dL
  Ca: 11.4 mg/dL
  Cl: 104.2 meq/L
  DBIL: 0.016 mg/dL
  GLC: 182 mg/dL
  IP: 8 mg/dL
  K: 4.4 meq/L
  LDH: 113.2 IU/L
  Na: 140.6 meq/L
  PL: 164.4 mg/dL
  RALB: 2.5 g/dL
  TBIL: 0.048 mg/dL
  TC: 91.4 mg/dL
  TG: 98.6 mg/dL
  TP: 5.5 g/dL
  gamma-GTP: 1 IU/L
[2]
  TERMINAL_BW: 259.6 g
  APTT: 16.5 s
  Bas: 0%
  Eos: 1%
  Fbg: 267 mg/dL
  Hb: 13.2 g/dL
  Ht: 39.5%
  Lym: 76%
  MCH: 21.1 pg
  MCHC: 33.5%
  MCV: 63.1 fL
  Mono: 2.6%
  Neu: 20.2%
  PT: 14.3 s
  Plat: 120.3 x10_4/uL
  RBC: 625.8 x10_4/ul
  Ret: 7.3%
  WBC: 103.6 x10_2/uL
  KIDNEY_L: 1.1 g
  KIDNEY_R: 1.2 g
  KIDNEY_TOTAL: 2.3 g
  LIVER: 13.3 g
  A/G: 0.8
  ALP: 1619 IU/L
  ALT: 41 IU/L
  AST: 62.6 IU/L
  BUN: 13.8 mg/dL
  CRE: 0.2 mg/dL
  Ca: 11.2 mg/dL
  Cl: 103.6 meq/L
  DBIL: 0.016 mg/dL
  GLC: 181.8 mg/dL
  IP: 7.7 mg/dL
  K: 3.8 meq/L
  LDH: 90.2 IU/L
  Na: 141.8 meq/L
  PL: 155.8 mg/dL
  RALB: 2.6 g/dL
  TBIL: 0.048 mg/dL
  TC: 77.6 mg/dL
  TG: 117.4 mg/dL
  TP: 5.8 g/dL
  gamma-GTP: 1 IU/L
[3]
  TERMINAL_BW: 325.5 g
  APTT: 14.3 s
  Bas: 0%
  Eos: 0.8%
  Fbg: 308.8 mg/dL
  Hb: 13.5 g/dL
  Ht: 41.1%
  Lym: 81.8%
  MCH: 20.8 pg
  MCHC: 32.9%
  MCV: 63.2 fL
  Mono: 2.4%
  Neu: 14.2%
  PT: 14.4 s
  Plat: 117.9 x10_4/uL
  RBC: 650.8 x10_4/ul
  Ret: 6.1%
  WBC: 78.6 x10_2/uL
  KIDNEY_L: 1.3 g
  KIDNEY_R: 1.3 g
  KIDNEY_TOTAL: 2.6 g
  LIVER: 17 g
  A/G: 0.8
  ALP: 1501.8 IU/L
  ALT: 41.8 IU/L
  AST: 63.6 IU/L
  BUN: 18 mg/dL
  CRE: 0.2 mg/dL
  Ca: 11.1 mg/dL
  Cl: 103.6 meq/L
  DBIL: 0.014 mg/dL
  GLC: 193.4 mg/dL
  IP: 7.7 mg/dL
  K: 4.1 meq/L
  LDH: 89.8 IU/L
  Na: 142.2 meq/L
  PL: 169.2 mg/dL
  RALB: 2.8 g/dL
  TBIL: 0.05 mg/dL
  TC: 87.2 mg/dL
  TG: 107.6 mg/dL
  TP: 6.1 g/dL
  gamma-GTP: 1 IU/L
[4]
  TERMINAL_BW: 410.1 g
  APTT: 15.7 s
  Bas: 0.2%
  Eos: 1%
  Fbg: 294 mg/dL
  Hb: 14.3 g/dL
  Ht: 42.2%
  Lym: 82.8%
  MCH: 19.7 pg
  MCHC: 33.8%
  MCV: 58.2 fL
  Mono: 2%
  Neu: 13.6%
  PT: 14.3 s
  Plat: 99 x10_4/uL
  RBC: 727.8 x10_4/ul
  Ret: 4.2%
  WBC: 114.5 x10_2/uL
  KIDNEY_L: 1.6 g
  KIDNEY_R: 1.6 g
  KIDNEY_TOTAL: 3.3 g
  LIVER: 19 g
  A/G: 0.8
  ALP: 1102.6 IU/L
  ALT: 38 IU/L
  AST: 56.4 IU/L
  BUN: 16.4 mg/dL
  CRE: 0.2 mg/dL
  Ca: 10.7 mg/dL
  Cl: 103.2 meq/L
  DBIL: 0.012 mg/dL
  GLC: 182.4 mg/dL
  IP: 7.1 mg/dL
  K: 3.8 meq/L
  LDH: 43.2 IU/L
  Na: 142.8 meq/L
  PL: 163.8 mg/dL
  RALB: 2.8 g/dL
  TBIL: 0.076 mg/dL
  TC: 80.2 mg/dL
  TG: 104.4 mg/dL
  TP: 6.1 g/dL
  gamma-GTP: 1 IU/L
[5]
  TERMINAL_BW: 206.6 g
  APTT: 15 s
  Bas: 0%
  Eos: 1%
  Fbg: 297 mg/dL
  Hb: 12.7 g/dL
  Ht: 38.8%
  Lym: 83.6%
  MCH: 21.5 pg
  MCHC: 32.8%
  MCV: 65.6 fL
  Mono: 2.8%
  Neu: 11.6%
  PT: 14.6 s
  Plat: 102.7 x10_4/uL
  RBC: 593 x10_4/ul
  Ret: 7%
  WBC: 86.2 x10_2/uL
  KIDNEY_L: 0.9 g
  KIDNEY_R: 1 g
  KIDNEY_TOTAL: 1.9 g
  LIVER: 10.9 g
  A/G: 0.9
  ALP: 1305.8 IU/L
  ALT: 41.4 IU/L
  AST: 71.4 IU/L
  BUN: 16 mg/dL
  CRE: 0.2 mg/dL
  Ca: 11 mg/dL
  Cl: 104 meq/L
  DBIL: 0.016 mg/dL
  GLC: 176.4 mg/dL
  IP: 7.8 mg/dL
  K: 4.5 meq/L
  LDH: 67.6 IU/L
  Na: 141 meq/L
  PL: 154.8 mg/dL
  RALB: 2.6 g/dL
  TBIL: 0.068 mg/dL
  TC: 89.6 mg/dL
  TG: 66.8 mg/dL
  TP: 5.5 g/dL
  gamma-GTP: 1 IU/L
[6]
  TERMINAL_BW: 222.5 g
  APTT: 16 s
  Bas: 0%
  Eos: 0.8%
  Fbg: 271.8 mg/dL
  Hb: 13.2 g/dL
  Ht: 38.8%
  Lym: 85.2%
  MCH: 20.6 pg
  MCHC: 34.1%
  MCV: 60.3 fL
  Mono: 2.5%
  Neu: 10.2%
  PT: 14.5 s
  Plat: 106.2 x10_4/uL
  RBC: 643 x10_4/ul
  Ret: 5.5%
  WBC: 113.2 x10_2/uL
  KIDNEY_L: 1.1 g
  KIDNEY_R: 1 g
  KIDNEY_TOTAL: 2.1 g
  LIVER: 11.4 g
  A/G: 0.9
  ALP: 1211 IU/L
  ALT: 32.2 IU/L
  AST: 56.8 IU/L
  BUN: 14 mg/dL
  CRE: 0.2 mg/dL
  Ca: 11 mg/dL
  Cl: 102.5 meq/L
  DBIL: 0.015 mg/dL
  GLC: 162.2 mg/dL
  IP: 7.4 mg/dL
  K: 3.9 meq/L
  LDH: 55 IU/L
  Na: 141.2 meq/L
  PL: 146.8 mg/dL
  RALB: 2.6 g/dL
  TBIL: 0.055 mg/dL
  TC: 87 mg/dL
  TG: 39.5 mg/dL
  TP: 5.6 g/dL
  gamma-GTP: 1 IU/L
[7]
  TERMINAL_BW: 223.7 g
  APTT: 15.4 s
  Bas: 0.2%
  Eos: 0.8%
  Fbg: 318.8 mg/dL
  Hb: 14.1 g/dL
  Ht: 41.5%
  Lym: 86.8%
  MCH: 19.7 pg
  MCHC: 34%
  MCV: 57.9 fL
  Mono: 2.6%
  Neu: 8.8%
  PT: 15.1 s
  Plat: 121 x10_4/uL
  RBC: 720 x10_4/ul
  Ret: 3.8%
  WBC: 108.8 x10_2/uL
  KIDNEY_L: 1.1 g
  KIDNEY_R: 1.1 g
  KIDNEY_TOTAL: 2.2 g
  LIVER: 10.8 g
  A/G: 0.9
  ALP: 975.2 IU/L
  ALT: 27.2 IU/L
  AST: 86.4 IU/L
  BUN: 17.8 mg/dL
  CRE: 0.2 mg/dL
  Ca: 10.5 mg/dL
  Cl: 104.8 meq/L
  DBIL: 0.02 mg/dL
  GLC: 150.2 mg/dL
  IP: 7.9 mg/dL
  K: 3.7 meq/L
  LDH: 99.2 IU/L
  Na: 144 meq/L
  PL: 138.6 mg/dL
  RALB: 2.7 g/dL
  TBIL: 0.078 mg/dL
  TC: 92.6 mg/dL
  TG: 34.6 mg/dL
  TP: 5.9 g/dL
  gamma-GTP: 1.2 IU/L
[8]
  TERMINAL_BW: 311.4 g
  APTT: 16.6 s
  Bas: 0.2%
  Eos: 1%
  Fbg: 368.6 mg/dL
  Hb: 13.9 g/dL
  Ht: 41.3%
  Lym: 85.8%
  MCH: 19.4 pg
  MCHC: 33.5%
  MCV: 57.9 fL
  Mono: 2.8%
  Neu: 9.2%
  PT: 14.3 s
  Plat: 107.6 x10_4/uL
  RBC: 714.8 x10_4/ul
  Ret: 3.8%
  WBC: 116.7 x10_2/uL
  KIDNEY_L: 1.5 g
  KIDNEY_R: 1.5 g
  KIDNEY_TOTAL: 3 g
  LIVER: 14.2 g
  A/G: 0.8
  ALP: 579.8 IU/L
  ALT: 21 IU/L
  AST: 58.6 IU/L
  BUN: 14.8 mg/dL
  CRE: 0.2 mg/dL
  Ca: 10 mg/dL
  Cl: 103.4 meq/L
  DBIL: 0.016 mg/dL
  GLC: 144.6 mg/dL
  IP: 7.5 mg/dL
  K: 3.6 meq/L
  LDH: 51.2 IU/L
  Na: 144.6 meq/L
  PL: 149.6 mg/dL
  RALB: 2.8 g/dL
  TBIL: 0.096 mg/dL
  TC: 104.2 mg/dL
  TG: 36 mg/dL
  TP: 6.2 g/dL
  gamma-GTP: 1.2 IU/L
